Two compounds from publication PMC10367051, “Comprehensive Mechanistic View of the Hydrolysis of Oxadiazole-Based Inhibitors by Histone Deacetylase 6 (HDAC6)” (ACS Chemical Biology, 2023) can be followed below.

Substitutions are numbered along the chain they refer to.

In one series the target is T1, wild-type zHDAC6 (Danio rerio, UniProt F8W4B7).
T1 construct: Danio rerio HDAC6 (amino acids 440–798; zHDAC6); His (N, cleaved yes); MBP (N, cleaved yes); made in house; host or cells: RIPL Escherichia coli
T1 sequence (F8W4B7 440-798): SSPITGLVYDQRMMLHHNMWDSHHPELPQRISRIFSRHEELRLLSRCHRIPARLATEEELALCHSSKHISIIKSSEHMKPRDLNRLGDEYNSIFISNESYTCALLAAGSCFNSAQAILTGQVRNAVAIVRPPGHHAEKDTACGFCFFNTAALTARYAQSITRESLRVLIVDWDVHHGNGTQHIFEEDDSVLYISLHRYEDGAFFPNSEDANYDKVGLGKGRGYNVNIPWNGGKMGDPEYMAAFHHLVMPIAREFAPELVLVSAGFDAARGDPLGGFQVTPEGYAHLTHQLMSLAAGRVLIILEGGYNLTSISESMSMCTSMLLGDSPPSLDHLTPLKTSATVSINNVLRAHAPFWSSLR
Kind of series: Inhibitor hydrolysis in vitro by purified wild-type HDAC6 (LC-MS/MS). The class given is biochemical. The following applies: 20 μM 8, 2 μM zHDAC6, 30 °C. Here is the method:
The second catalytic domain of Danio rerio HDAC6 (amino acids 440–798; zHDAC6) was expressed in RIPL Escherichia coli as described previously using the pEC566-zHDAC6 expression vector.[16],[38] Briefly, bacteria were incubated at 37 °C with shaking (250 rpm) until the optical density reached an OD600 = 0.5. Then, the culture was cooled to 18 °C for 1 h, and recombinant protein expression was induced by the addition of 75 μM isopropyl β-D-1-thiogalactopyranoside together with 200 μM ZnSO4. The culture was grown at 18 °C for an additional 18 h and harvested by centrifugation at 5500g for 15 min. […] The purity of protein preparations was monitored by SDS-PAGE (Figure S2).
Mass spectrometry quantification of inhibitors/reaction products was carried out with a Shimadzu LCMS-8040 instrument (Shimadzu, HPLC Prominence system). […] Multiple reaction monitoring (MRM) parameters were optimized for each analyte, and corresponding major CID fragments were used for quantification. Analytes were quantified using corresponding calibration curves generated from pure compounds dissolved in water.
[…] Four microliter aliquots of reaction mixtures were injected into the system directly from the 96-well plate, and inhibitors/reaction products were quantitated as described above.

For the next series, the target named is T2, HDAC6(Y745F) mutant (Danio rerio, UniProt F8W4B7, Y745F).
T2 construct: Danio rerio HDAC6 (amino acids 440–798; zHDAC6); His (N, cleaved yes); MBP (N, cleaved yes); made in house; host or cells: RIPL Escherichia coli
T2 sequence (F8W4B7 440-798 Y745F): T1 sequence (F8W4B7 440-798) with Y306F
Nature of the series: Inhibitor hydrolysis in vitro by HDAC6(Y745F) mutant (LC-MS/MS). The format is biochemical. Conditions: 30 °C; for hydrolysis by the HDAC6(Y745F) mutant: 20 μM compound, 2 μM enzyme. Here is the method:
The zHDAC6 mutants (Y745F and H574A) were constructed using the Quick-change site-directed mutagenesis protocol with the pEC566-zHDAC6 expression plasmid as a template. Both mutants were expressed and purified as described above for wild-type zHDAC6 (Figure S2).
(§1) Mass spectrometry quantification of inhibitors/reaction products was carried out with a Shimadzu LCMS-8040 instrument (Shimadzu, HPLC Prominence system). Analytes were separated on a Kinetex XB-C18 2.6 μm, 100 Å column (50 × 2.1 mm; Phenomenex) in a linear 15–60% CH3CN/H2O gradient containing 0.1% formic acid at a flow rate of 0.8 mL min^–1 over 4 min. Multiple reaction monitoring (MRM) parameters were optimized for each analyte, and corresponding major CID fragments were used for quantification. Analytes were quantified using corresponding calibration curves generated from pure compounds dissolved in water.
[…] […] Four microliter aliquots of reaction mixtures were injected into the system directly from the 96-well plate, and inhibitors/reaction products were quantitated as described above.

The next series deals with HEK293T cell lysates. Kind of series: Inhibitor hydrolysis in HEK293T cell lysates (LC-MS/MS). The format is in vitro ADME. Conditions: 20 μM 8, 2.5 mg mL^–1 protein, 37 °C. Here is the method: as §1
HEK293T cells and the HEK293T cell line stably transfected with human HDAC6 were grown in FreeStyle 293 medium supplemented with 1% FBS. Cells were harvested by centrifugation at 500g for 5 min, and cell pellets were resuspended in the lysis buffer (50 mM HEPES, 140 mM NaCl, 10 mM KCl, and 0.5% NP-40 at pH 7.4). Following short sonication (3 × 5 s), the cell lysates were centrifuged at 20,000g for 10 min, supernatants were transferred to fresh tubes, and the total protein concentration was adjusted to 4 mg mL^–1 by the addition of the lysis buffer. […] Following 15 min incubation on ice, stopped reactions were centrifuged at 20,000g for 10 min, and supernatants were analyzed by LC–MS as described above.

In series [1] the test system is HEK293/HDAC6 cell lysates (stably transfected with human HDAC6). Kind of series: Inhibitor hydrolysis in HEK293/HDAC6 cell lysates (LC-MS/MS). The class given is in vitro ADME. Conditions: 20 μM 8, 2.5 mg mL^–1 protein, 37 °C. How it is done:
HEK293 cells stably transduced with full-length human HDAC6 were generated following the protocol published previously.[40] Briefly, Lenti-X 293T and HEK293T cells were grown in T75 flasks in the DMEM/F-12/10% fetal bovine serum (FBS) medium under an atmosphere containing 5% CO2 at 37 °C. The Lenti-X 293T cells were transfected with the combination of pMD.2G, psPAX2, and pHR_CMV_MM320_hsHD6 (Figure S2) using Lipofectamine2000 (Invitrogen) according to the manufacturer’s protocol. Three days post-transfection, the virion-rich medium was collected by centrifugation, supplemented with polybrene (final concentration 10 μg mL^–1), and added to adherent HEK293T cells grown to 100% confluency. Three days post-infection, transduced HEK293T cells were expanded in FreeStyle 293 medium (GIBCO) supplemented with 1% FBS in an Erlenmeyer flask (suspension culture, 110 RPM). Transduction efficacy was determined by flow cytometry analysis to be >95%.
Mass spectrometry quantification of inhibitors/reaction products was carried out with a Shimadzu LCMS-8040 instrument (Shimadzu, HPLC Prominence system). […] Multiple reaction monitoring (MRM) parameters were optimized for each analyte, and corresponding major CID fragments were used for quantification. Analytes were quantified using corresponding calibration curves generated from pure compounds dissolved in water. […]

On to `CS(=O)(=O)N(Cc1ccc(-c2nnc(C(F)F)o2)cn1)c1cccc(Cl)c1` [compound 8], for which, on wild-type zHDAC6, the “time of near-complete depletion of the inhibitor” value is on record as “approximately 120 min” and the “time to full hydrolysis of the inhibitor” value was less than 180 min. The “rate of hydrolysis by the HDAC6(Y745F) mutant relative to wild type” value at HDAC6(Y745F) mutant (20 μM 8, 2 μM enzyme) is on record as “comparable to the wild-type HDAC6”. Further, the “hydrolysis by the HDAC6(Y745F) mutant” value on HDAC6(Y745F) mutant is recorded as “hydrolyzed”. The “hydrolysis in HEK293T cell lysate” value in the series with HEK293T cell lysates was “hydrolyzed 8 to 6 and 4”. Moreover, in series [1], the “efficiency of hydrolysis in HEK293/HDAC6 lysate versus HEK293 lysate” value was “more efficient”; the “hydrolysis in HEK293/HDAC6 cell lysate” value is “hydrolyzed 8 to 6 and 4”.
Take `CS(=O)(=O)N(Cc1ccc(C(=O)NNC(=O)C(F)F)cn1)c1cccc(Cl)c1` [compound 6]: on HDAC6(Y745F) mutant, the “hydrolysis by the HDAC6(Y745F) mutant” value was “hydrolyzed”.
